The results in this text go back to patent publication US20240254066A1, “RESCORCINOLS, METHODS FOR THEIR MANUFACTURE, AND USES THEREOF” (GW Research Limited, priority 2021, published 2024).

The data set relates to tonic hind limb extensor convulsions (mouse model of generalised seizure). Description: mini-MEST (maximal electroshock seizure threshold) test in the mouse. Conditions: for change in vivo at 5 mg/kg / change in vivo at 50 mg/kg / change in vivo at 25 mg/kg: Mus musculus, ip, change in CC50; for change in vivo at 5 mg/kg: 0.25 h, read-out: % change from vehicle, 5 mg/kg i.p., 15 min post dose; for change in vivo at 50 mg/kg / change in vivo at 25 mg/kg: 0.5 h; for change in vivo at 50 mg/kg: read-out: % change from vehicle, 50 mg/kg i.p., 30 min post dose; for change in vivo at 25 mg/kg: read-out: % change from vehicle, 25 mg/kg i.p., 30 min post dose. As to the method:
The efficacy of novel resorcinols 2, 3, 5, 8, 10, 15, 16, 17, 18, 19, 41 45, 46, 53, 56 and 58 were tested in a novel mouse model of generalised seizure, the mini-MEST (maximal electroshock seizure threshold) test, which uses lower n numbers than typically used.
The maximal electroshock seizure threshold (MEST) test is widely utilized preclinically to evaluate pro- or anti-convulsant properties of test compounds (Loscher et al., 1991).
In the MEST test the ability of a drug to alter the seizure threshold current required to induce hind limb tonic extensor convulsions is measured according to an “up and down” method of shock titration (Kimball et al., 1957). An increase in seizure threshold is indicative of anti-convulsant effect.
The ability of a test compound to alter the stimulus intensity, expressed as current (mA), required to induce the presence of tonic hind limb extensor convulsions, is assessed in the MEST.
Naïve mice were acclimatised to the procedure room in their home cages for up to 7 days, with food and water available ad libitum.
All animals were weighed at the beginning of the study and randomly assigned to treatment groups based on a mean distribution of body weight across groups.
The first animal within a treatment group was given a shock at the expected or estimated CC50 current. For subsequent animals, the current was lowered or raised depending on the convulsions outcome from the preceding animal in log scale intervals.
Data generated from each treatment group were used to calculate the CC50±SEM values for the treatment group.
Vehicle: (5% ethanol, 10% solutol in 85% Saline) was prepared as follows: 1 mL of ethanol, 2 mL of solutol were warmed to 60° C., in 17 mL of saline (1:2:17).
The test compounds used were 2, 3, 5, 8, 10, 15, 16, 17, 18, 19, 41, 45, 46, 53, 56 and 58 Test compounds were administered at 5-50 mg/kg (i.p.) in a 1:2:17 ethanol:solutol:saline formulation.
Test compound effects were also calculated as percentage change in CC50 from the vehicle control group.
Significant difference between drug-treated animals and controls were assessed according to Litchfield and Wilcoxon (1949).

[1] abbreviates: 5 mg/kg i.p., test 15 min post dose.
The mark [2] stands for this setting: 50 mg/kg i.p., test 30 min post dose.
The mark [3] stands for this setting: 25 mg/kg i.p., test 30 min post dose.

In the case of `C=C(C)[C@@H]1C[C@H](O)C(C)=C[C@H]1c1c(O)cc(-c2ccc3c(c2)OCO3)cc1O` [Compound 41, (1′R,2′R,4′S)-4-(Benzo[d][1,3]dioxol-5-yl)-5′-methyl-2′-(prop-1-en-2-yl)-1′,2′,3′,4′-tetrahydro-[1,1′-biphenyl]-2,4′,6-triol], the change in vivo at 5 mg/kg was 91% and the change in vivo at 50 mg/kg is greater than 394%. The “CC50 +/− SEM” value under setting [1] stood at 50.5 ± 0.7 mA. Besides, the “CC50 +/− SEM” value under setting [2] is greater than 131.0 mA.
As to `C=C(C)[C@@H]1C[C@H](O)C(C)=C[C@H]1c1c(O)cc(-c2cccc3c2OCO3)cc1O` [Compound 42, (1′R,2′R,4′S)-4-(Benzo[d][1,3]dioxol-4-yl)-5′-methyl-2′-(prop-1-en-2-yl)-1′,2′,3′,4′-tetrahydro-[1,1′-biphenyl]-2,4′,6-triol], the change in vivo at 50 mg/kg amounted to 457%. Further, the “CC50 +/− SEM” value under setting [2] is greater than 131.0 mA.
As for `C=C(C)[C@@H]1C[C@H](O)C(C)=C[C@H]1c1c(O)cc(CCC)c(F)c1O` [Compound 45, (1′R,2′R,4′S)-3-fluoro-5′-methyl-2′-(prop-1-en-2-yl)-4-propyl-1′,2′,3′,4′-tetrahydro-[1,1′-biphenyl]-2,4′,6-triol], the change in vivo at 5 mg/kg turned out to be 58%. For the same molecule, under setting [1], the “CC50 +/− SEM” value is 35.5 +/− 0.5 mA.
As for `C=C(C)[C@@H]1C[C@H](O)C(C)=C[C@H]1c1c(O)cc(CCC)c(Cl)c1O` [Compound 46, (1′R,2′R,4′S)-3-chloro-5′-methyl-2′-(prop-1-en-2-yl)-4-propyl-1′,2′,3′,4′-tetrahydro-[1,1′-biphenyl]-2,4′,6-triol], the change in vivo at 50 mg/kg was determined as 217%. Further, under setting [2], the “CC50 +/− SEM” value is 84.0 ± 3.4 mA.
Turning to `C=C(C)[C@@H]1C[C@H](O)C(C)=C[C@H]1c1c(O)cc(Br)c(Cl)c1O` [Compound 47, (1′R,2′R,4′S)-4-bromo-3-chloro-5′-methyl-2′-(prop-1-en-2-yl)-1″,2″,3′,4′-tetrahydro-[1,1′-biphenyl]-2,4′,6-triol], the change in vivo at 25 mg/kg stood at 238%. Further, the “CC50 +/− SEM” value under setting [3] worked out at 79.5 ± 10.0 mA.
Regarding `C=C(C)[C@@H]1C[C@H](O)C(C)=C[C@H]1c1c(O)cc(-c2cccc(OC)c2)c(Cl)c1O` [Compound 49, (1R,2R,4S)-3′-Chloro-3″-methoxy-5-methyl-2-(prop-1-en-2-yl)-1,2,3,4-tetrahydro-[1,1′:4′,1″-terphenyl]-2′,4,6′-triol], the change in vivo at 50 mg/kg was 244%. Further, under setting [2], the “CC50 +/− SEM” value is 97.5 ± 1.3 mA.
`C=C(C)[C@@H]1C[C@H](O)C(C)=C[C@H]1c1c(O)c(C)c(-c2ccnc(OC)c2)c(C)c1O` [Compound 52, (1′R,2′R,4′S)-4-(2-Methoxypyridin-4-yl)-3,5,5′-trimethyl-2′-(prop-1-en-2-yl)-1′,2′,3′,4′-tetrahydro-[1,1′-biphenyl]-2,4′,6-triol]: the change in vivo at 5 mg/kg worked out at 9% and the change in vivo at 50 mg/kg came to 170%. Besides, the “CC50 +/− SEM” value under setting [1] came out at 31.0 ± 4.5 mA. For the same molecule, the “CC50 +/− SEM” value under setting [2] stood at 76.5 ± 2.6 mA.
In the case of `C=C(C)[C@@H]1C[C@H](OC)C(C)=C[C@H]1c1c(O)cc(CCC)cc1O` [Compound 53, (1′R,2′R,4′S)-4′-Methoxy-5′-methyl-2′-(prop-1-en-2-yl)-4-propyl-1′,2″,3′,4′-tetrahydro-[1,1′-biphenyl]-2,6-diol], the change in vivo at 25 mg/kg was determined as 29%. In addition, the “CC50 +/− SEM” value under setting [3] was 29.0 +/− 1.5 mA.
`C=C(C)[C@@H]1C[C@H](O)C(C)=C[C@H]1c1c(O)cc(-c2ccnc(C(F)(F)F)c2)cc1O` [Compound 58, (1′R,2′R,4′S)-5′-Methyl-2′-(prop-1-en-2-yl)-4-(2-(trifluoromethyl)pyridin-4-yl)-1′,2′,3′,4′-tetrahydro-[1,1′-biphenyl]-2,4′,6-triol]: the change in vivo at 50 mg/kg turned out to be 234%. Moreover, under setting [2], the “CC50 +/− SEM” value is listed as 88.5 ± 1.3 mA.
